According to ChEMBL document CHEMBL4049425, “Fragment-Based, Structure-Enabled Discovery of Novel Pyridones and Pyridone Macrocycles as Potent Bromodomain and Extra-Terminal Domain (BET) Family Bromodomain Inhibitors” (J Med Chem, 2017):

Columns and labels:
[1] = tested on: MX1; test: Antiproliferative activity against human MX1 cells after 72 hrs by Cell Titer Glo assay; format: functional, cell-based; settings: MX1, 72 h
[2] = target: T1, Bromodomain-containing protein 4 (Homo sapiens, UniProt O60885); test: Inhibition of human N-terminal His6-tagged BRD4 BD1-BD2 (57 to 550 residues) expressed in EScherichia coli BL21(DE3) after 1 hr by Alexa-647-conjugated probe based TR-FRET assay
[3] = target: T1, Bromodomain-containing protein 4; test: Inhibition of BRD4 in human NCI-H1299 cells after 24 hrs by Bright-Glo luciferase reporter gene assay; format: cell-based
[4] = Lipophilicity, log D of the compound; format: physicochemical; settings: octanol/water
[5] = tested on: Liver; test: Unbound intrinsic clearance in human liver microsomes; format: ADME, microsome
[6] = tested on: Liver; test: Unbound intrinsic clearance in mouse liver microsomes; format: ADME, microsome
[7] = tested on: Liver; test: Unbound intrinsic clearance in rat liver microsomes; format: ADME, microsome
[8] = Fraction unbound in mouse plasma at 1 uM after 4 hrs by LC-MS/MS analysis; format: ADME, cell-free
[9] = Permeability of the compound by PAMPA; format: physicochemical; settings: read-out: permeability
[10] = tested on: Mus musculus; test: Unbound clearance in mouse at 1 mg/kg, iv or 1 mg/kg, po; format: ADME, organism-based; settings: in vivo
[11] = tested on: Mus musculus; test: Unbound AUC in mouse at 1 mg/kg, po; format: ADME, organism-based; settings: in vivo
[12] = tested on: Mus musculus; test: Fraction absorbed in portal vein of mouse at 1 mg/kg, iv or 1 mg/kg, po; format: ADME, organism-based; settings: in vivo
[13] = Oral bioavailability in mouse at 1 mg/kg; format: ADME, organism-based; settings: in vivo
[14] = tested on: Rattus norvegicus; test: Unbound clearance in rat at 1 mg/kg, iv or 1 mg/kg, po; format: ADME, organism-based; settings: in vivo
[15] = tested on: Rattus norvegicus; test: Unbound AUC in rat at 1 mg/kg, po; format: ADME, organism-based; settings: in vivo
[16] = Oral bioavailability in rat at 1 mg/kg; format: ADME, organism-based; settings: in vivo
[17] = Fraction unbound in rat plasma; format: ADME, cell-free
[18] = tested on: Mus musculus; test: Unbound plasma clearance in mouse at 3 mg/kg, iv or 10 mg/kg, po; format: ADME, organism-based; settings: in vivo
[19] = tested on: Mus musculus; test: Dose normalized fAUC in mouse at 3 mg/kg, iv or 10 mg/kg, po; format: ADME, organism-based; settings: in vivo
[20] = tested on: Mus musculus; test: Fraction absorbed in portal vein of mouse at 3 mg/kg, iv or 10 mg/kg, po; format: ADME, organism-based; settings: in vivo
[21] = Oral bioavailability in mouse at 10 mg/kg; format: ADME, organism-based; settings: in vivo

Row | SMILES | EC50 [1] | Ki [2] | EC50 [3] | logD [4] | CL free [5] | CL free [6] | CL free [7] | also measured
1 | CCS(=O)(=O)Nc1ccc(Oc2ccccc2)c(-c2cn(C)c(=O)cc2OC)c1 | 16 nM | 8.2 nM | 67 nM | – | – | – | – | –
2 | CCS(=O)(=O)Nc1ccc(Oc2ccc(F)cc2F)c(-c2cn(C)c(=O)cc2OCC(C)(C)O)c1 | 710 nM | 71 nM | 1100 nM | 2.8 to 4.3 | – | – | – | –
3 | CCS(=O)(=O)Nc1ccc(Oc2ccc(F)cc2F)c(-c2cn(C)c(=O)cc2OCCN2CCOCC2)c1 | > 3000 nM | 230 nM | 2200 nM | 2.8 to 4.3 | – | – | – | –
4 | CCOC(=O)Nc1ccc(Oc2ccccc2)c(-c2nn(C)c(=O)cc2OC)c1 | 4500 nM | 1100 nM | 4900 nM | – | – | – | – | –
5 | CCS(=O)(=O)c1ccc2c(c1)-c1cn(C)c(=O)cc1OCCc1ccccc1O2 | 710 nM | 100 nM | 630 nM | 2.8 to 4.3 | 100 mL/min/kg | 333 mL/min/kg | 167 mL/min/kg | –
6 | CCS(=O)(=O)Nc1cnc2c(c1)-c1cn(C)c(=O)cc1OCCCCc1cc(Cl)ccc1O2 | 5.7 nM | 3.4 nM | 9.3 nM | 2.8 to 4.3 | 63.3 mL/min/kg | 1030 mL/min/kg | 153 mL/min/kg | fraction unbound at 4 h, 1 µM [8]: 0.06; Papp [9]: 7.2 ×10⁻⁶ cm/s; CL free [10]: 102 mL/min/kg; fAUC [11]: 120 ng·h/mL; FaFg [12]: 0.76; bioavailability [13]: 70%; CL free [14]: 833 mL/min/kg; fAUC [15]: 5 ng·h/mL; bioavailability [16]: 19%; fraction unbound [17]: 0.12
7 | COc1cc(=O)n(C)nc1-c1cc(N)ccc1Oc1ccccc1 | 7200 nM | 1700 nM | 2900 nM | – | – | – | – | –
8 | CCOc1cc(=O)n(C)cc1-c1cc(S(=O)(=O)CC)ccc1Oc1ccc(F)cc1F | 40 nM | – | 66 nM | 2.8 to 4.3 | < 33 mL/min/kg | 200 mL/min/kg | 103 mL/min/kg | fraction unbound at 4 h, 1 µM [8]: 0.1; CL free [18]: 167 mL/min/kg; fAUC/dose [19]: 0.039 µg·h/mL per mg/kg; FaFg [20]: 0.52; bioavailability [21]: 41%
9 | COc1cc(=O)n(C)cc1-c1ccccc1Oc1ccccc1 | 1500 nM | 450 nM | 2800 nM | – | – | – | – | –
10 | CCOc1cc(=O)n(C)cc1-c1cc(NS(=O)(=O)CC)ccc1Oc1ccc(C#N)cc1 | 53 nM | 16 nM | 55 nM | – | < 26.7 mL/min/kg | < 76.7 mL/min/kg | < 43.3 mL/min/kg | –
11 | COC(=O)C[C@@H]1N=C(c2ccc(Cl)cc2)c2c(sc(C)c2C)-n2c(C)nnc21 | – | 16.7 nM | – | – | – | – | – | –
12 | CCS(=O)(=O)Nc1ccc(Oc2ccc(F)cc2F)c(-c2cn(C)c(=O)cc2OCC(F)(F)F)c1 | 120 nM | 22 nM | 100 nM | 2.8 to 4.3 | – | – | – | –
13 | CCOc1cc(=O)n(C)cc1-c1cc(NS(=O)(=O)CC)ccc1Oc1ccc(F)cc1 | 16 nM | 5.6 nM | 69 nM | – | < 33 mL/min/kg | < 98.3 mL/min/kg | 167 mL/min/kg | –
14 | CCOc1cc(=O)n(C)cc1-c1cc(NS(=O)(=O)CC)ccc1Oc1cccnc1 | 50 nM | 17 nM | 150 nM | – | < 31.7 mL/min/kg | < 53.3 mL/min/kg | < 53.3 mL/min/kg | –
15 | CCS(=O)(=O)Nc1ccc2c(c1)-c1cn(C)c(=O)cc1OCCCCc1cc(F)cc(F)c1O2 | – | – | – | 2.8 to 4.3 | 67 mL/min/kg | 700 mL/min/kg | 317 mL/min/kg | fraction unbound at 4 h, 1 µM [8]: 0.03; Papp [9]: 6.8 ×10⁻⁶ cm/s; fAUC [11]: 8 ng·h/mL
16 | CCS(=O)(=O)Nc1ccc2c(c1)-c1cn(C)c(=O)cc1OCCCCCc1cc(Cl)ccc1O2 | 16 nM | 2.8 nM | 35 nM | 4.3 | 517 mL/min/kg | 4670 mL/min/kg | 1830 mL/min/kg | Papp [9]: 0.89 ×10⁻⁶ cm/s
17 | CCOc1cc(=O)n(C)cc1-c1cc(NS(=O)(=O)CC)ccc1OC1CCC(F)(F)CC1 | 250 nM | 110 nM | 390 nM | – | 35 mL/min/kg | 167 mL/min/kg | 183 mL/min/kg | –
18 | CCOc1cc(=O)n(C)cc1-c1cc(NS(=O)(=O)CC)ccc1Oc1ccc(F)cc1F | – | – | – | 2.8 to 4.3 | < 71.7 mL/min/kg | < 100 mL/min/kg | 60 mL/min/kg | fraction unbound at 4 h, 1 µM [8]: 0.1; CL free [18]: 267 mL/min/kg; FaFg [20]: 0.79; bioavailability [21]: 56%

Row | SMILES | EC50 [1] | Ki [2] | EC50 [3] | logD [4] | CL free [5] | CL free [6] | CL free [7] | also measured
19 | CCS(=O)(=O)c1ccc2c(c1)-c1cn(C)c(=O)cc1OCCCc1ccccc1O2 | 6.9 nM | 7.3 nM | 26 nM | 2.8 to 4.3 | 148 mL/min/kg | 900 mL/min/kg | – | –
20 | CCS(=O)(=O)Nc1cnc2c(c1)-c1cn(C)c(=O)cc1OCCCCc1cc(F)cc(F)c1O2 | 4.2 nM | 0.8 nM | 6.4 nM | 2.8 to 4.3 | < 28.3 mL/min/kg | 250 mL/min/kg | 75 mL/min/kg | fraction unbound at 4 h, 1 µM [8]: 0.12; Papp [9]: 9 ×10⁻⁶ cm/s; CL free [10]: 317 mL/min/kg; fAUC [11]: 15 ng·h/mL; FaFg [12]: 0.49; bioavailability [13]: 27%
21 | CCOc1cc(=O)n(C)cc1-c1cc(NS(=O)(=O)CC)ccc1Oc1ccc(OC(F)(F)F)cc1 | 62 nM | 5.5 nM | 210 nM | – | 95 mL/min/kg | 1500 mL/min/kg | 3000 mL/min/kg | –
22 | CNc1cc(=O)n(C)nc1-c1ccccc1 | – | 160000 nM | – | – | – | – | – | –
23 | Cn1cc2c(cc1=O)OCCCCc1cc(Cl)ccc1Oc1ccc(CS(C)(=O)=O)cc1-2 | 19 nM | 3.8 nM | 18 nM | 2.8 to 4.3 | 267 mL/min/kg | 1670 mL/min/kg | 317 mL/min/kg | fraction unbound at 4 h, 1 µM [8]: 0.03; Papp [9]: 9.2 ×10⁻⁶ cm/s; CL free [10]: 400 mL/min/kg; fAUC [11]: 29 ng·h/mL; FaFg [12]: 0.79; bioavailability [13]: 68%
24 | COc1cc(=O)n(C)cc1-c1cc(NS(C)(=O)=O)ccc1Oc1ccccc1 | 130 nM | 58 nM | 77 nM | – | – | – | – | –
25 | CCOc1cc(=O)n(C)cc1-c1cc(CS(C)(=O)=O)ccc1Oc1ccc(F)cc1F | 140 nM | 120 nM | 230 nM | 2.8 to 4.3 | – | – | – | –
26 | CCS(=O)(=O)c1ccc2c(c1)-c1cn(C)c(=O)cc1OCCCCc1ccccc1O2 | 10 nM | 1.9 nM | 6.7 nM | 2.8 to 4.3 | 130 mL/min/kg | 867 mL/min/kg | 533 mL/min/kg | –
27 | COc1cc(=O)n(C)nc1-c1cc(NS(C)(=O)=O)ccc1Oc1ccccc1 | 730 nM | 140 nM | 230 nM | – | – | – | – | –
28 | CCOc1cc(=O)n(C)cc1-c1cc(NS(=O)(=O)CC)ccc1Oc1ccccc1 | 4.7 nM | 4.4 nM | 39 nM | – | 67 mL/min/kg | 91.7 mL/min/kg | 3000 mL/min/kg | –
29 | CCS(=O)(=O)Nc1ccc(Oc2ccc(F)cc2F)c(-c2cn(C)c(=O)cc2OC2COC2)c1 | 25 nM | 9 nM | 48 nM | 2.8 to 4.3 | 76.7 mL/min/kg | 150 mL/min/kg | < 41.7 mL/min/kg | fraction unbound at 4 h, 1 µM [8]: 0.2; CL free [18]: 143 mL/min/kg; fAUC/dose [19]: 0.026 µg·h/mL per mg/kg; FaFg [20]: 0.3; bioavailability [21]: 20%
30 | CCOc1cc(=O)n(C)cc1-c1cc(NS(=O)(=O)CC)cnc1Oc1ccc(F)cc1F | 32 nM | 8.7 nM | 45 nM | 2.8 to 4.3 | – | – | – | –
31 | CCNc1cc(=O)n(C)cc1-c1cc(NS(=O)(=O)CC)ccc1Oc1ccc(F)cc1F | 30 nM | 14 nM | 140 nM | 2.8 to 4.3 | – | – | – | –
32 | CCOc1cc(=O)n(C)cc1-c1cc(NS(=O)(=O)CC)ccc1Oc1ccc(Cl)cc1 | 18 nM | 2.6 nM | 27 nM | – | < 50 mL/min/kg | < 148 mL/min/kg | 88.3 mL/min/kg | –
33 | CCNC(=O)Nc1ccc(Oc2ccccc2)c(-c2nn(C)c(=O)cc2OC)c1 | 13000 nM | 1900 nM | 2800 nM | – | – | – | – | –
34 | COc1cc(=O)n(C)nc1-c1cc(NC(C)=O)ccc1Oc1ccccc1 | 1300 nM | 900 nM | 370 nM | – | – | – | – | –
35 | CCS(=O)(=O)c1ccc2c(c1)-c1cn(C)c(=O)cc1OCCCCc1cc(Cl)ccc1O2 | 13 nM | 2 nM | 16 nM | 2.8 to 4.3 | 167 mL/min/kg | 883 mL/min/kg | 700 mL/min/kg | fraction unbound at 4 h, 1 µM [8]: 0.04; Papp [9]: 7.6 ×10⁻⁶ cm/s; CL free [10]: 167 mL/min/kg; fAUC [11]: 41 ng·h/mL; FaFg [12]: 0.44; bioavailability [13]: 41%
36 | CCS(=O)(=O)Nc1ccc(Oc2ccc(F)cc2F)c(-c2cn(C)c(=O)cc2OCC(C)C)c1 | 140 nM | 7 nM | 180 nM | 2.8 to 4.3 | – | – | – | –
